According to patent publication US10220548B2, “Humidity activated formulation for volatile compounds” (AgroFresh, Inc., priority 2013, dated 2019):

Key:
[1] = Quantification of amount of active in coating by GC; format: physicochemical; conditions: PVOH/active/SDS coating; for % Incorporated active (compared to theoretical maximum amount): theoretical maximum 25 wt. % of active
Protocol: The coating is peeled off the PET backer and then placed in a petri-dish in a fume-hood overnight to allow any residual non-encapsulated active to evaporate. The following day, the delaminated coating is precisely weighed into a 20 mL GC vial. 5.0 grams of DI water is added, and the vial immediately sealed. The contents of the vial are gently swirled to dissolve the coating in the water, and at least 10 hours are allowed for the headspace to equilibrate with the aqueous phase. A headspace sample is then removed by syringe for injection into the GC column.

[2] = Vapor pressure and saturated headspace concentration of pure reference compound; format: physicochemical; conditions: for saturated headspace concentration of reference samples: pure compound 0.5 mL in vial, calculated from known vapor pressures at room temperature
Protocol: The strips of coating are then placed inside GC headspace vials (20 mL). In some cases a droplet of water (0.10 mL) is added to the bottom of the vial (avoiding contact with the strip) before the vial is sealed, in order to generate an atmosphere of 100% relative humidity (RH).
(§1) Analysis of Release of trans-2-hexenal or guaiacol from Coating into Headspace: A strip of approximately 13.6 cm^2 is cut from the middle of the coated PET sheet. The coating is peeled off the PET backer and then placed in a petri-dish in a fume-hood overnight to allow any residual non-encapsulated active to evaporate. A GC vial, 20 mL, with a screw-on septum-cap is prepared at 95% humidity by adding a mini plastic ultracentrifuge vial with the cap cut off containing approximately 0.20 g of saturated potassium nitrate (KNO3) solution, with a few grains of solid KNO3 added to maintain saturation. After allowing time (at least 2 hours) for the humidity in the vial to equilibrate, the strip of coating is added to the GC vial, and the vial immediately sealed. After allowing the desired amount of time for release of the active from the coating, a headspace sample is removed by syringe for injection into the GC column. The concentration in the Headspace is determined by comparing the GC Peak Area of the sample to the GC Peak Area of the headspace from a vial containing 0.5 mL of pure trans-2-hexenal, or guaiacol.

[3] = at 25° C.; known value; cited from earlier work
[4] = Analysis of release of trans-2-hexenal or guaiacol from coating into headspace at 95% RH; format: physicochemical; conditions: PVOH coating strip, room temperature/95% RH
Protocol: as §1

Row | % Incorporated active (compared to theoretical maximum amount) [1] [%] | saturated concentration in the headspace of reference vial ([2]; pure compound 0.50 mL in vial, calculated from known vapor pressure at 25° C.) [ppm] | Absolute amount of active incorporated (wt. %) [1] [% wt. %] | Concentration of guaiacol in headspace (ppm) ([4]; 0.62 hours after strip inserted into GC vial) | Concentration of guaiacol in headspace (ppm) ([4]; 1.2 hours) | Concentration of guaiacol in headspace (ppm) ([4]; 1.75 hours) | Concentration of guaiacol in headspace (ppm) ([4]; 3.52 hours) | Concentration of guaiacol in headspace (ppm) ([4]; 23.75 hours) | saturated headspace concentration of reference samples [2] | Concentration of trans-2-hexenal in headspace (ppm) ([4]; 0.17 hours after strip inserted into GC vial) | Concentration of trans-2-hexenal in headspace (ppm) ([4]; 0.70 hours) | Concentration of trans-2-hexenal in headspace (ppm) ([4]; 1.25 hours) | Concentration of trans-2-hexenal in headspace (ppm) ([4]; 1.78 hours) | Concentration of trans-2-hexenal in headspace (ppm) ([4]; 2.33 hours) | Concentration of trans-2-hexenal in headspace (ppm) ([4]; 2.87 hours) | Concentration of trans-2-hexenal in headspace (ppm) ([4]; 3.42 hours) | Concentration of trans-2-hexenal in headspace (ppm) ([4]; 4.52 hours) | Concentration of trans-2-hexenal in headspace (ppm) ([4]; 17.77 hours) | Compound | vapor pressure [3] [kPa]
1 | 75.0 | 1224 | – | – | – | – | – | – | – | – | – | – | – | – | – | – | – | – | CCCCCCO [Formulation 1-Hexanol, 1-hexanol] | 0.124
2 | 68.7 | – | 17.2 | 76.17 | 81.90 | 80.20 | 82.55 | 89.52 | 145 ppm (V/V) | – | – | – | – | – | – | – | – | – | COc1ccccc1O [Guaiacol, guaiacol] | –
3 | 71.9 | – | 18.0 | – | – | – | – | – | 8685 ppm (V/V) | 350.60 | 589.45 | 1266.50 | 2036.63 | 3484.15 | 4541.25 | 6173.40 | 7357.28 | 6742.25 | CCC/C=C/C=O [Trans-2-hexenal, trans-2-hexenal] | –
